{"source": "patent US12708625B2", "about": "“Pharmaceutical composition for improving or treating post-surgical hypoparathyroidism and treatment method using the same” (DONGGUK UNIVERSITY INDUSTRY-ACADEMIC COOPERATION FOUNDATION, priority 2019, dated 2026)", "format_in_all_cases": "in vivo, rat", "key": {"[1]": {"system": "hemi-parathyroidectomy model", "experiment": "Administration of AXT914 in hemi-parathyroidectomy model (Experimental Schedule 1): serum PTH, calcium, phosphorus, urine calcium/creatinine", "details": "for urine calcium/creatinine ratio: 24 h urine on Day 13", "procedure": "(§1) 9-week-old female Wistar rats were purchased from Koatech Co., Ltd. (Korea), and housed in an SPF room at a temperature of 21 to 23° C. and a humidity of 40 to 60% using a standard cage and under 12 hours cycles of light and darkness. The rats were acclimatized to the room for 1 week while being fed with a standard laboratory feed, and then used in the experiment. All care and experiments of experimental animals were performed following the guidelines by Animal Research Institute of Medical Science at Dongguk University, and the experimental schedule was approved by the Animal Institutional Review Board (AIRB No. 2016-04149 and AIRB No. 2019-07188).\n(§2) To construct a post-surgical hypoparathyroidism rat model, 10-week-old rats acclimatized for 1 week were used.\n(§3) To identify the parathyroid gland, a photosensitization method using 5-aminolevulinic acid hydrochloride (5-ALA) was performed. Briefly, a 50 mg/mL 5-ALA solution was prepared by suspending a 5-ALA powder (Sigma-Aldrich Korea, 5-aminolevulinic acid, #A3785, purity ≥98%) in a 0.9% NaCl solution. The rats were injected intraperitoneally with 500 mg/kg of the 5-ALA solution and after 2 hours, intramuscularly with Zoletil 50 (Virbac Laboratories, France) (0.1 mL/kg of body weight) and Rompun® (Bayer, Germany) (0.1 mL/kg of body weight). The anesthetized rats were laid down and the anterior neck and chest area were disinfected with povidone-iodine. In the surgical procedure, the trachea and the thyroid glands were exposed by incising the skin longitudinally from the midline of the neck. Both parathyroid glands showing a red fluorescent color were identified using blue light with a wavelength of 405±3 nm (Ergonomic LED Light Sources, Ocean Optics Inc., #LS-405, USA). In the case of the hemi-parathyroidectomy model, only one of both the parathyroid glands was removed. In the case of total parathyroidectomy and auto-transplantation model, both the parathyroid glands were removed, and then cut into small pieces, put into a small pocket made in the right sternocleidomastoid muscle (SCM), and the pocket was sutured with a […].\n(§4) AXT914 was obtained by Novartis Pharma AG (Switzerland). The AXT914 was prepared in the form of a microemulsion by the following method. Briefly, after Cremophor RH40 was heated to 65° C. with stirring, the Cremophor RH40, Capmul MCM, triethyl citrate, and ethanol absolute were mixed at a weight ratio of 34.6%, 42%, 8.4%, and 10%, respectively. After a clear solution obtained by stirring the mixture for 1 hour was used as a vehicle and mixed with AXT914 (weight ratio of 5%), the resulting mixture was stirred at an ambient temperature for 8 to 12 hours. A finally obtained microemulsion preconcentrate was diluted 10 folds with deionized water (DW) and mixed vigorously before administration.\nReferring to FIG. 1a, rats that had undergone hemi-parathyroidectomy were divided into a vehicle administration group (n=11), an AXT914 administration group 1 (n=10), and an AXT914 administration group 2 (n=11). A sham surgery group (n=9), which had undergone sham surgery, was also prepared. One week after the surgery, the AXT914 prepared in 1-3. was orally administered to the rats once daily for 2 weeks using a zonde needle. 5 mg/kg and 10 mg/kg of the AXT914 were administered to AXT914 administration groups 1 and 2, respectively. The vehicle (a mixture mixed with AXT914 in 1-3.) was orally administered to the vehicle administration group and the sham surgery group. Urine of the rats was collected for 24 hours on Day 13 after the start of drug administration. Blood was collected from the tails of the rats before the administration of drug (baseline) and from the tails of the rats at 0, 30, 120, 240, 360, and 720 minutes on Day 14 after the start of drug administration, and the rats were sacrificed. […]"}, "[2]": {"system": "total parathyroidectomy and auto-transplantation model", "experiment": "Administration of AXT914 in total parathyroidectomy and auto-transplantation model (Experimental Schedule 2): serum PTH, calcium, phosphorus", "details": "10 mg/kg oral once daily 3 weeks", "procedure": "as §1, §2, §3, §4\nReferring to FIG. 1b, rats that had undergone total parathyroidectomy and auto-transplantation were divided into a vehicle administration group (n=8) and an AXT914 administration group (n=8). A sham surgery group (n=6), which had undergone sham surgery, was also prepared. One week after the surgery, the AXT914 prepared in 1-3. was orally administered to the rats once daily for 3 weeks using a zonde needle, and the rats were sacrificed 1 week after the completion of administration and used for analysis. 10 mg/kg of AXT914 was administered to the AXT914 administration group. The vehicle was orally administered to the vehicle administration group and the sham surgery group. Blood was collected from the tails of the rats before the administration of drug (baseline) and from the tails of the rats on Day 21 and Day 28 after the start of drug administration.\nSerum samples obtained by centrifugation of BD Microtainer SSTTM (prod. No. REF 365967, Becton Dickinson) containing blood, and were stored in a −80° C. deep freezer. […]"}, "[3]": {"system": "total parathyroidectomy and auto-transplantation model", "experiment": "H&E staining of transplanted parathyroid tissue in SCM, total parathyroidectomy and auto-transplantation model (Experimental Schedule 3)", "details": "Day 18, vs vehicle administration group", "procedure": "as §1, §2\nTo identify the parathyroid gland, a photosensitization method using 5-aminolevulinic acid hydrochloride (5-ALA) was performed. Briefly, a 50 mg/mL 5-ALA solution was prepared by suspending a 5-ALA powder (Sigma-Aldrich Korea, 5-aminolevulinic acid, #A3785, purity ≥98%) in a 0.9% NaCl solution. The rats were injected intraperitoneally with 500 mg/kg of the 5-ALA solution and after 2 hours, intramuscularly with Zoletil 50 (Virbac Laboratories, France) (0.1 mL/kg of body weight) and Rompun® (Bayer, Germany) (0.1 mL/kg of body weight). […]"}, "[4]": {"system": "total parathyroidectomy and auto-transplantation model", "experiment": "Immunohistochemical staining of transplanted parathyroid tissue in SCM, total parathyroidectomy and auto-transplantation model (Experimental Schedule 3)", "details": "Day 18; for expression of Ki67 (marker of cell proliferation) in transplanted parathyroid tissue: between administration groups", "procedure": "as §1, §2, §3, §4\nReferring to FIG. 1c, rats that had undergone total parathyroidectomy and auto-transplantation were divided into a vehicle administration group (n=11), an AXT914 administration group 1 (n=11), and an AXT914 administration group 2 (n=11). A sham surgery group (n=7), which had undergone sham surgery, was also prepared. Six days after the surgery, the AXT914 prepared in 1-3. was orally administered to the rats once daily every 5 days weekly for 18 days using a zonde needle, and the rats were sacrificed on Day 18 of the completion of administration and used for analysis. 10 mg/kg and 20 mg/kg of the AXT914 were orally administered to AXT914 administration groups 1 and 2, respectively. The vehicle was orally administered to the vehicle administration group and the sham surgery group. Blood was collected from the tails of the rats before the administration of drug (baseline) and collected from the tails of the rats on Day 18 of the completion of drug administration. A histological analysis was performed by sacrificing the rats to isolate SCMs with parathyroid glands autotransplanted. […]"}, "[5]": {"details": "Day 21, vs vehicle administration group"}, "[6]": {"details": "Day 28 (7 days after drug discontinuation), vs vehicle administration group"}, "[7]": {"details": "10 mg/kg oral 5 days weekly for 18 days, vs vehicle administration group"}, "[8]": {"details": "20 mg/kg oral 5 days weekly for 18 days, vs vehicle administration group"}}}
{"smiles": "C#CCOc1ccc2c(c1)c(-c1ccc(C(C)C)cc1)nc(=O)n2Cc1ccc(Br)cc1", "note": "[AXT914]", "values": [{"measurement": "serum PTH level", "setting": "[1]; 5 mg/kg oral once daily 2 weeks (group 1), Day 14, 120 minutes, vs vehicle administration group", "result": "higher than that of the vehicle administration group"}, {"measurement": "serum PTH level", "setting": "[1]; 5 mg/kg oral once daily 2 weeks (group 1), Day 14, vs sham surgery group", "result": "no statistical difference from the sham surgery group"}, {"measurement": "serum calcium level", "setting": "[1]; 5 mg/kg oral once daily 2 weeks, Day 14, all times, vs vehicle administration group", "result": "significantly higher calcium levels than those of the vehicle administration group"}, {"measurement": "serum phosphorus level", "setting": "[1]; 5 mg/kg oral once daily 2 weeks, Day 14, vs sham surgery group", "result": "no statistical difference from the sham surgery group"}, {"measurement": "serum calcium level", "setting": "[1]; 5 mg/kg oral once daily 2 weeks, Day 14 at 0, 30 and 720 minutes, vs sham surgery group", "result": "no statistical difference from those of the sham surgery group"}, {"measurement": "serum phosphorus level", "setting": "[1]; 5 mg/kg oral once daily 2 weeks, Day 14 at 30, 120 and 360 minutes, vs vehicle administration group", "result": "significantly lower"}, {"measurement": "urine calcium/creatinine ratio", "setting": "[1]; 5 mg/kg oral once daily, vs sham surgery group", "result": "no difference between the sham surgery group and the AXT914 administration groups"}, {"measurement": "urine calcium/creatinine ratio", "setting": "[1]; 5 mg/kg oral once daily, vs vehicle administration group", "result": "vehicle administration group had a significantly higher urine calcium/creatinine ratio than the sham surgery group and the AXT914 administration groups"}, {"measurement": "serum PTH level", "setting": "[1]; 10 mg/kg oral once daily 2 weeks (group 2), Day 14, all times, vs the other groups", "result": "significantly higher than those in the other groups"}, {"measurement": "serum calcium level", "setting": "[1]; 10 mg/kg oral once daily 2 weeks, Day 14, all times, vs vehicle administration group", "result": "significantly higher calcium levels than those of the vehicle administration group"}, {"measurement": "serum phosphorus level", "setting": "[1]; 10 mg/kg oral once daily 2 weeks, Day 14, vs sham surgery group", "result": "no statistical difference from the sham surgery group"}, {"measurement": "serum calcium level", "setting": "[1]; 10 mg/kg oral once daily 2 weeks, Day 14 at 0 and 30 minutes, vs sham surgery group", "result": "no statistical difference from those of the sham surgery group"}, {"measurement": "serum phosphorus level", "setting": "[1]; 10 mg/kg oral once daily 2 weeks, Day 14 at 30, 240, 360 and 720 minutes, vs vehicle administration group", "result": "significantly lower"}, {"measurement": "urine calcium/creatinine ratio", "setting": "[1]; 10 mg/kg oral once daily, vs sham surgery group", "result": "no difference between the sham surgery group and the AXT914 administration groups"}, {"measurement": "urine calcium/creatinine ratio", "setting": "[1]; 10 mg/kg oral once daily, vs vehicle administration group", "result": "vehicle administration group had a significantly higher urine calcium/creatinine ratio than the sham surgery group and the AXT914 administration groups"}, {"measurement": "serum PTH level", "setting": "[2]; Day 21, vs sham surgery group", "result": "lower than those in the sham surgery group"}, {"measurement": "serum calcium level", "setting": "[2]; Day 21, vs sham surgery group", "result": "no difference from those in the sham surgery group"}, {"measurement": "serum phosphorus level", "setting": "[2]; Day 21, vs sham surgery group", "result": "no difference from those in the sham surgery group"}, {"measurement": "serum PTH level", "setting": "[2]; [5]", "result": "significantly higher than those in the vehicle administration group"}, {"measurement": "serum calcium level", "setting": "[2]; [5]", "result": "significantly higher than those in the vehicle administration group"}, {"measurement": "serum phosphorus level", "setting": "[2]; [5]", "result": "significantly lower than those in the vehicle administration group"}, {"measurement": "serum calcium level", "setting": "[2]; Day 28 (7 days after drug discontinuation), vs sham surgery group", "result": "lower than those in the sham surgery group"}, {"measurement": "serum calcium level", "setting": "[2]; [6]", "result": "still higher than those in the vehicle administration group"}, {"measurement": "serum phosphorus level", "setting": "[2]; [6]", "result": "lower than those in the vehicle administration group, but there was no statistical difference"}, {"measurement": "area increase of transplanted parathyroid tissue (H&E staining)", "setting": "[3]; 10 mg/kg oral 5 days weekly for 18 days (group 1)", "result": 36, "unit": "%"}, {"measurement": "area increase of transplanted parathyroid tissue (H&E staining)", "setting": "[3]; 20 mg/kg oral 5 days weekly for 18 days (group 2), significant", "result": "about 3 times"}, {"measurement": "expression of Ki67 (marker of cell proliferation) in transplanted parathyroid tissue", "setting": "[4]; 10 mg/kg oral 5 days weekly for 18 days", "result": "not different between the administration groups"}, {"measurement": "FGF2 positive cells in transplanted parathyroid tissue", "setting": "[4]; [7]", "result": "not statistically significant, but showed an increasing pattern"}, {"measurement": "increase in the expression of VEGFA in transplanted parathyroid tissue", "setting": "[4]; [7]", "result": "about 6 fold"}, {"measurement": "increase of expression level of PTH in transplanted parathyroid tissue", "setting": "[4]; [7]", "result": "about 2 fold"}, {"measurement": "increase of number of CD31 positive cells in transplanted parathyroid tissue", "setting": "[4]; [7]", "result": "about 3 folds"}, {"measurement": "expression of Ki67 (marker of cell proliferation) in transplanted parathyroid tissue", "setting": "[4]; 20 mg/kg oral 5 days weekly for 18 days", "result": "not different between the administration groups"}, {"measurement": "FGF2 positive cells in transplanted parathyroid tissue", "setting": "[4]; [8]", "result": "not statistically significant, but showed an increasing pattern"}, {"measurement": "expression of MCL1 in transplanted parathyroid tissue", "setting": "[4]; [8]", "result": "not statistically significant in AXT914 administration group 2, but showed an increasing pattern"}, {"measurement": "increase in the expression of VEGFA in transplanted parathyroid tissue", "setting": "[4]; [8]", "result": "about 10 fold"}, {"measurement": "increase of expression level of PTH in transplanted parathyroid tissue", "setting": "[4]; [8]", "result": "about 2 fold"}, {"measurement": "increase of number of CD31 positive cells in transplanted parathyroid tissue", "setting": "[4]; [8]", "result": "about 4.5 folds"}]}
